Data set [1] is described as follows: Xenon long-life fadeometer test of photochromic poly(methyl methacrylate) cast film (initial coloration density, T1/2, λmax), Example 9.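 As to Initial color density: 0.5 part by weight compound dispersed with PMMA in 100 parts benzene.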 Format: physicochemical. The following applies: poly(methyl methacrylate) cast film 0.1 mm; for Initial color density: initial coloration density (absorbance); for Initial color density / T1/2 (fatigue life): xenon fadeometer; for λmax: maximum absorption wavelength; for T1/2 (fatigue life): time for color density to decrease to half of initial value. The source says:
The thickness of the cast film was adjusted to 0.1 mm.
(§1) T1/2 is defined as the time required for the color density to decrease to half of its initial value when the film is exposed to the fadeometer.

A short description of data set [2]: Durability test of poly(allyl diglycol carbonate) lens impregnated with compound in silicone oil, Example 10. The data set is classed as physicochemical. As to conditions: for Initial color density / λmax: impregnated from silicone oil; for T1/2: impregnated from silicone oil at 200° C. for 1 hour, xenon fadeometer. Here is the method:
as §1
The solution was impregnated in the surface of a lens composed of poly(allyl diglycol carbonate) at 200° C. for 1 hour. The concentration of the solution was adjusted to 1.0×10^-4 mole/g.

As for `CCCCC1=C2C(=O)N(CC(C)(C)CCOC(=O)CBr)C(=O)C2C2(CC3CCC2C3(C)C)c2sc3c(c21)CCCC3` (centres unmarked) [(21)], in data set [1], the Initial color density is 0.52, the λmax amounted to 576 nm and the “T1/2 (fatigue life)” value came to 36 h.

For `CC1=C2C(=O)OC(=O)C2C2(CC3CCC2(C)C3(C)C)c2sc(C)cc21` (centres unmarked) [(95)], in data set [1], the Initial color density worked out at 0.53, the λmax came to 540 nm and the “T1/2 (fatigue life)” value came out at 11 h.

In the case of `CNC(=O)CN1C(=O)C2=C(C)c3cc([N+](=O)[O-])sc3C3(C4CC5CC(C4)CC3C5)C2C1=O` (centres unmarked) [(11)], in data set [1], the Initial color density is 0.61, the λmax was determined as 525 nm and the “T1/2 (fatigue life)” value worked out at 39 h.

Consider `CCCCC12CC3CC(C1)C1(c4c(n(C)c5ccccc45)C(C)=C4C(=O)N(CC(=O)OCCC#N)C(=O)C41)C(Cl)(C3)C2` (centres unmarked) [(29)], for which, in data set [1], the Initial color density amounted to 0.71, the λmax amounted to 576 nm and the “T1/2 (fatigue life)” value came out at 44 h. Also, in data set [2], the Initial color density is 0.56, the λmax is given as 583 nm and the T1/2 is 45 h.

With `COCCOCN1C(=O)C2=C(C)c3c(oc4ccccc34)C3(C4CC5CC(F)(C4)CC3(F)C5)C2C1=O` (centres unmarked) [(16)], in data set [1], the Initial color density stood at 0.84, the λmax is listed as 492 nm and the “T1/2 (fatigue life)” value is 31 h.

Consider `CCN1C(=O)C2=C(C)c3cc(OC)c(OC)c(OC)c3C3(CC4CCC3C4)C2C1=O` (centres unmarked) [(99)], for which, in data set [1], the Initial color density came to 0.24, the λmax is 510 nm and the “T1/2 (fatigue life)” value was determined as 8 h.

For the compound `CC1=C2C(=O)N(CC#N)C(=O)C2C2(c3occc31)C1CC3CC(C1)CC2C3` (centres unmarked) [(28)], in data set [1], the Initial color density was 0.9, the λmax is 535 nm and the “T1/2 (fatigue life)” value worked out at 48 h. Also, in data set [2], the Initial color density is 0.72, the λmax is listed as 540 nm and the T1/2 is 49 h.

Take `CC1=C2C(=O)N(c3ccccc3)C(=O)C2C2(CC3CCC2C3)c2sc(Br)cc21` (centres unmarked) [(97)]: in data set [1], the Initial color density turned out to be 0.31, the λmax is recorded as 506 nm and the “T1/2 (fatigue life)” value stood at 8 h.

For `COc1ccc2c3c(sc2c1)C1(C2CC4CC(C2)CC1C4)C1C(=O)N(CCl)C(=O)C1=C3C` (centres unmarked) [(9)], in data set [1], the Initial color density stood at 0.59, the λmax came to 542 nm and the “T1/2 (fatigue life)” value worked out at 30 h.

For `CCN1C(=O)C2=C(C)c3ccsc3C3(C4CC5CC(C4)CC3C5)C2C1=O` (centres unmarked) [(X), reference compound], in data set [1], the Initial color density was found to be 0.7, the λmax was 530 nm and the “T1/2 (fatigue life)” value worked out at 3 h.

In the case of `CCn1c2c(c3ccccc31)C(C)=C1C(=O)OC(=O)C1C21C2CCC(C2)C1(C)C` (centres unmarked) [(94)], in data set [1], the Initial color density turned out to be 0.49, the λmax is 546 nm and the “T1/2 (fatigue life)” value came out at 12 h.

Turning to `CC(=O)CN1C(=O)C2=C(c3ccccc3)c3cc(-c4ccccc4)sc3C3(C4CC5CC(C4)CC3C5)C2C1=O` (centres unmarked) [(10)], in data set [1], the Initial color density amounted to 0.58, the λmax amounted to 601 nm and the “T1/2 (fatigue life)” value came out at 40 h. Also, in data set [2], the Initial color density was 0.47, the λmax is reported as 610 nm and the T1/2 was 43 h.

Consider `CC1=C2C(=O)N(c3ccc(C)cc3)C(=O)C2C2(CC3CCC2C3)c2sc3ccccc3c21` (centres unmarked) [(98)], for which, in data set [1], the λmax was 513 nm and the “T1/2 (fatigue life)” value is 11 h.

As to `CC1=C2C(=O)N(CC(=O)OCC(C)C)C(=O)C2C2(CC3CCC2C3)c2sc(Br)cc21` (centres unmarked) [(19)], in data set [1], the Initial color density was determined as 0.47, the λmax was found to be 520 nm and the “T1/2 (fatigue life)” value was 43 h.

Consider `CCC1=C2C(=O)N(CC(=O)CCC(=O)CCl)C(=O)C2C2(c3c1sc1ccccc31)C1(F)C(F)(F)C3(F)C(F)(F)C(F)(C1(F)F)C(F)(F)C2(F)C3(F)F` (centres unmarked) [(18)], for which, in data set [1], the Initial color density was 0.52, the λmax is recorded as 519 nm and the “T1/2 (fatigue life)” value came to 41 h.

These data come from US4960678A, “Photochromic compounds” (Tokuyama Soda Kabushiki Kaisha, priority 1987, dated 1990).
